Experimental data: US11479571B2 (priority 2016, dated 2022)

Tests used:
[1] = tested on: Vesicular stomatitis virus (VSV) particles encoding luciferase and pseudotyped with EboV GP; assay: microbe, parasite or virus in culture; format: cell-based, Ebola virus; details: for inhibition at 10 µM: compound concentration 10 μM; for inhibition at 2 µM: compound concentration 2 μM

O=C(OCc1ccccc1)N1CCN(C(=O)c2ccc3nc(-c4ccccn4)[nH]c3c2)CC1
melting point: 165 °C

FC(F)(F)c1ccc(CN2CCN(Cc3ccc4nc(-c5ccccc5)[nH]c4c3)CC2)cc1
melting point: 178 °C

FC(F)(F)c1ccc(CN2CCN(Cc3ccc4nc(-c5cccnc5)[nH]c4c3)CC2)cc1
melting point: 138 °C

O=C(c1ccc2nc(-c3ccccc3)[nH]c2c1)N1CCN(Cc2ccc(C(F)(F)F)cc2)CC1
melting point: 220 °C

O=C(c1ccc2nc(C(c3ccccc3)c3ccccc3)[nH]c2c1)N1CCN(Cc2ccc(C(F)(F)F)cc2)CC1
melting point: 148 °C

FC(F)(F)Oc1cccc(CN2CCN(Cc3ccc4nc(C(c5ccccc5)c5ccccc5)[nH]c4c3)CC2)c1
melting point: 86 °C

FC(F)(F)Oc1cccc(CN2CCN(Cc3ccc4nc(-c5cccnc5)[nH]c4c3)CC2)c1
melting point: 110 °C

FC(F)(F)Oc1cccc(CN2CCN(Cc3ccc4nc(-c5ccccn5)[nH]c4c3)CC2)c1
melting point: 65 °C

O=C(c1ccc2nc(C(c3ccccc3)c3ccccc3)[nH]c2c1)N1CCN(Cc2cccc(OC(F)(F)F)c2)CC1
melting point: 76 °C

O=C(c1ccc2nc(-c3ccccn3)[nH]c2c1)N1CCN(Cc2cccc(OC(F)(F)F)c2)CC1
melting point: 100 °C

FC(F)(F)Oc1ccc(CN2CCN(Cc3ccc4nc(-c5cccnc5)[nH]c4c3)CC2)cc1
melting point: 88 °C

FC(F)(F)Oc1ccc(CN2CCN(Cc3ccc4nc(-c5ccccn5)[nH]c4c3)CC2)cc1
melting point: 64 °C

O=C(c1ccc2nc(C(c3ccccc3)c3ccccc3)[nH]c2c1)N1CCN(Cc2ccc(OC(F)(F)F)cc2)CC1
melting point: 120 °C

O=C(c1ccc2nc(-c3ccccn3)[nH]c2c1)N1CCN(Cc2ccc(OC(F)(F)F)cc2)CC1
melting point: 190 °C

Cc1ccc(NC(=O)N2CCN(Cc3ccc4nc(-c5cccnc5)[nH]c4c3)CC2)cc1
melting point: 174 °C

O=C(Nc1ccc(C(F)(F)F)cc1)N1CCN(Cc2ccc3nc(C(c4ccccc4)c4ccccc4)[nH]c3c2)CC1
melting point: 172 °C

O=C(COc1ccc(Cl)cc1)N1CCN(Cc2ccc3nc(C(c4ccccc4)c4ccccc4)[nH]c3c2)CC1
melting point: 194 °C

O=C(COc1ccc(Cl)cc1)N1CCN(Cc2ccc3nc(-c4ccccn4)[nH]c3c2)CC1
melting point: 138 °C

COC(=O)c1ccc(COc2ccccc2CN2CCN(Cc3ccc4nc(-c5ccccc5)[nH]c4c3)CC2)cc1 [Compound E11, N1-[[2-[(4-methoxycarbonylphenyl)methoxy]phenyl]methyl]-N4-[(2-phenyl-benzimidazol-5-yl)methyl]-piperazine]
inhibition at 10 µM [1]: 95%

COC(=O)c1ccc(COc2ccccc2CN2CCN(Cc3ccc4nc(-c5ccccn5)[nH]c4c3)CC2)cc1 [Compound E14, N1-[[2-[(4-methoxycarbonylphenyl)methoxy]phenyl]methyl]-N4-[[2-(2-pyridyl)-benzimidazol-5-yl]methyl]-piperazine]
inhibition at 10 µM [1]: 80%

COC(=O)c1ccc(COc2ccccc2CN2CCN(Cc3ccc4nc(-c5ccc(C(F)(F)F)cc5)[nH]c4c3)CC2)cc1 [Compound E15, N1-[[2-[4-(trifluoromethyl)phenyl]-benzimidazol-5-yl]methyl]-N4-[[2-[(4-methoxycarbonylphenyl)methoxy]phenyl]methyl]-piperazine]
inhibition at 2 µM [1]: 2%
inhibition at 10 µM [1]: 93.5%

COC(=O)c1ccc(COc2ccccc2CN2CCN(Cc3ccc4nc(-c5cccc(C(F)(F)F)c5)[nH]c4c3)CC2)cc1 [Compound E16, N1-[[2-[3-(trifluoromethyl)phenyl]-benzimidazol-5-yl]methyl]-N4-[[2-[(4-methoxycarbonylphenyl)methoxy]phenyl]methyl]-piperazine]
melting point: 102 °C
inhibition at 2 µM [1]: 64.1%
inhibition at 10 µM [1]: 91.6%

COC(=O)c1ccc(COc2ccccc2CN2CCN(C(=O)c3ccc4nc(-c5ccccc5)[nH]c4c3)CC2)cc1 [Compound E17, N1-[[2-[(4-methoxycarbonylphenyl)methoxy]phenyl]methyl]-N4-(2-phenyl-benzimidazole-5-carbonyl)-piperazine]
melting point: 255 °C
inhibition at 10 µM [1]: < 20%

COC(=O)c1ccc(COc2ccccc2CN2CCN(C(=O)c3ccc4nc(C(c5ccccc5)c5ccccc5)[nH]c4c3)CC2)cc1 [Compound E18, N1-(2-benzhydryl-benzimidazole-5-carbonyl)-N4-[[2-[(4-methoxycarbonylphenyl)methoxy]phenyl]methyl]-piperazine]
melting point: 196 °C
inhibition at 10 µM [1]: < 20%

COC(=O)c1ccc(COc2ccccc2CN2CCN(C(=O)c3ccc4nc(-c5cccnc5)[nH]c4c3)CC2)cc1 [Compound E19, N1-[[2-[(4-methoxycarbonylphenyl)methoxy]phenyl]methyl]-N4-[2-(3-pyridyl)-benzimidazole-5-carbonyl]-piperazine]
inhibition at 10 µM [1]: < 20%

COC(=O)c1ccc(COc2ccccc2CN2CCN(C(=O)c3ccc4nc(-c5ccccn5)[nH]c4c3)CC2)cc1 [Compound E20, N1-[[2-[(4-methoxycarbonylphenyl)methoxy]phenyl]methyl]-N4-[2-(2-pyridyl)-benzimidazole-5-carbonyl]-piperazine]
melting point: 96 °C
inhibition at 10 µM [1]: < 20%

FC(F)(F)c1ccc(CN2CCN(Cc3ccc4nc(C(c5ccccc5)c5ccccc5)[nH]c4c3)CC2)cc1 [Compound E22, N1-[(2-benzhydryl-benzimidazol-5-yl)methyl]-N4-[4-(trifluoromethyl)benzyl]-piperazine]
melting point: 236 °C
inhibition at 2 µM [1]: < 20%
inhibition at 10 µM [1]: 80%

FC(F)(F)Oc1cccc(CN2CCN(Cc3ccc4nc(-c5ccccc5)[nH]c4c3)CC2)c1 [Compound E29, N1-[3-(trifluoromethoxy)benzyl]-N4-[(2-phenyl-benzimidazol-5-yl)methyl]-piperazine]
melting point: 80 °C
inhibition at 2 µM [1]: < 20%
inhibition at 10 µM [1]: 80%

O=C(Nc1ccc(C(F)(F)F)cc1)N1CCN(Cc2ccc3nc(-c4ccccn4)[nH]c3c2)CC1 [Compound E52, N1-[[2-(2-pyridyl)-benzimidazol-5-yl]methyl]-N4-[[4-(trifluoromethyl)phenyl]carbamoyl]-piperazine]
inhibition at 2 µM [1]: 64.3%
inhibition at 10 µM [1]: 82.9%

CCOP(=O)(Cc1ccc(COc2ccccc2CN2CCN(Cc3ccc4nc(-c5cccc(C(F)(F)F)c5)[nH]c4c3)CC2)cc1)OCC [Compound E57]
inhibition at 10 µM [1]: < 20%

CCOP(=O)(Cc1cccc(COc2ccccc2CN2CCN(Cc3ccc4nc(-c5cccc(C(F)(F)F)c5)[nH]c4c3)CC2)c1)OCC [Compound E59]
inhibition at 10 µM [1]: < 20%
